Source: US20230374076A1, “THE PREPARATION OF CERAMIDE CONJUGATES AND DERIVATIVES OF SP[…]” (KODE BIOTECH LIMITED, priority 2017, published 2023)

Test system: red blood cells
Assay: Incorporation of the ceramide conjugate into red blood cell membranes, fluorescence scored after labelling with Avidin Alexa Fluor 488
Type: cell-based
Description: A 50 μL volume of packed red blood cells was re-suspended in an equal volume of a dispersion in phosphate buffered saline (PBS) (pH 7.2) of the ceramide conjugate (X). The re-suspended cells were incubated at 37° C. for two hours and then washed once with PBS. The modified cells were diluted with PBS to provide a suspension at a concentration equivalent to 5% of the packed cell volume. A 30 μL volume of the diluted suspension was then mixed with an equal volume of a 0.1 mg/mL solution of Avidin Alexa Flour™ 488 in PBS. The mixture was incubated at room temperature for 30 minutes before washing and re-suspending the modified cells in PBS. The fluorescence of cells in a 5 μL volume was observed using a microscope (Olympus BX51) at 400 x magnification.
The modified cells prepared using dispersions of the ceramide conjugate (X) at different concentrations (0 (control), 0.5, 5 and 50 μM) were scored.

Substance: ceramide-β-Ala-CMG(2)-biot [ceramide conjugate (X)]
- Incorporation into cell membranes (fluorescent labelling of the modified cells): spontaneously incorporated into cell membranes
